# Key:
# [1] = Ascorbate consumption experiment (ROS-generation capability, UV-vis); settings: ascorbic acid 100 µM, complex 2 µM, 50 mM NaCl/5 mM TRIS-HCl pH 7.2, max 5% DMSO, UV-vis at 265 nm
# Protocol: All the spectra were recorded at room temperature either on an Agilent HP 8453, a Varian Cary 50 Bio, a Varian Cary 60 Bio or a Perkin Elmer Lambda 650 spectrophotometer, using 1 cm quart-cuvettes. Ascorbate consumption experiments were monitored by UV-vis at the maximum absorption band of the ascorbic acid (100 µM) at 265 nm for about 45 min. CuCl2 and the assayed complexes C1-C3 were added at a final concentration of 2 µM in 50 mM NaCl/5 mM TRIS-HCl buffer (pH 7.2), with a maximum of 5% of DMSO.
# Prior to biological evaluation, and after proving that the new C2-C5 Cu(II) complexes hold the same metallic core as C1, the impact of the ligand substituents on their catalytic properties, and therefore, ROS-generating capabilities ([Peña et al., 2021]), were confirmed with the two simplest functionalized Cu(II) compounds (C2 and C3), as model compounds bearing oppositely-charged functional moieties. The consumption of ascorbate was measured by UV-vis spectroscopy, monitoring its characteristic absorbance at 265 nm. The correlation of ascorbate consumption with the generation of ROS has proven to be a reliable method to effectively monitor ROS production ([Alies et al., 2013]; [Chassaing et al., 2013]).
# HeLa cells = test: Cell-viability assay (PrestoBlue); assay type: cell-based, Human; settings: 24 h treatment, normalized for Cu concentration, mean ± SD, N ≥ 3
# Protocol: (§1) Human cancer cells (cervix: HeLa; and breast: MCF7) were obtained from American Type Culture Collection (ATCC, Manassas, VA, United States). Cells were routinely cultured with DMEM (Dulbecco’s modified Eagle’s medium, Invitrogen) for HeLa, and with DMEM/F-12 (Dulbecco’s MEM/Nutrient Mixture F-12 Ham, Invitrogen) for MCF7, both supplemented with 10% heat-inactivated fetal bovine serum (FBS, Invitrogen) at 37°C in a humidified 5% CO2 atmosphere.
# (§2) HeLa and MFC7 cells were seeded into a 96-well plate at a cell density of 3·10^3 cells/well in 100 µL of culture medium and allowed to grow overnight. The next day, the C1-C5 complexes were added to cells at a range concentration of 0–200 μM. […] The growth inhibitory effect of the complexes was measured at 24 h using the PrestoBlue Cell Reagent (Life Technologies) assay. […] After 2 h incubation (37°C, 5% CO2), the fluorescence of each well was measured at 572 nm after excitation at 531 nm with a Microplate Reader Victor3 (Perkin Elmer). Cytotoxicity was evaluated by relative cell viability (%) for each sample related to the control well. The IC50 values were calculated from the obtained cell viability results. […] Cells were allowed then to evolve until a total incubation time of 72 h and the cell viability was measured with PrestoBlue®, as beforehand detailed.
# MCF7 cells = test: Cell-viability assay (PrestoBlue); assay type: cell-based, Human; settings: MCF7, 24 h treatment, normalized for Cu concentration, mean ± SD, N ≥ 3
# Protocol: as §1, §2
structure (smiles),measurement,setting,value
"[Cl][Cu][Cl] [CuCl2, copper(II) chloride]",Time to (almost) total ascorbate consumption,[1],~20 min
same,IC50,HeLa cells,≥ 200 µM
same,IC50,MCF7 cells,≥ 200 µM

# Source: article PMC9714576, “Cell-penetrating peptide-conjugated copper complexes for redox-mediated anticancer therapy” (Frontiers in Pharmacology, 2022)
